In patent US20060014712A1, “Controlled delivery of therapeutic compounds” (CeMines, Inc., priority 2004, published 2006):

How the values were obtained:
SK-MEL-28 [1] = test: Cell counting after 7 day peptide treatment; type: cell-based, human; details: conc 10 µM, start count 10
Method: (§1) The ability to block interaction of MITF, SOX10 and STAT3 with active transcriptional complex and inhibit proliferation and stimulate apoptosis of melanoma cells were tested on human melanoma cell lines SK-MEL-28 and WM 266-4, and mouse melanoma cell line B16. Methods. Human melanoma cell lines SK-MEL-28 and WM 2664 and mouse melanoma cell line B16 were obtained from the American Tissue Culture Collection (ATCC). Cells were cultured according to recommendations of ATCC (DMEM, 10% FCS, penicillin+streptomycin) and used in experiments after two passages in the laboratory. Cells were grown in 24 well plates, each treatment in triplicates. Cells were plated 16 hours prior treatments started. Peptides were added to the media, and media was changed every day during 7 day experiment. CPP concentration was 10 μM For cell counting, cells were trypsinized (0.25% Trypsin, 2 mM EDTA) in Ca^+2, Mg^+2 free PBS. Cells were precipitated and resuspended in 100 μl of PBS, and 5 μl were removed for counting Methods. Human melanoma cell lines SK-MEL-28 and WM 266-4 were obtained from the American Tissue Culture Collection (ATCC) and were cultured according to recommendations of ATCC (DMEM, 10% FCS, penicillin+streptomycin). Human keratinocytes were obtained from Clonetics and cultured according to manufacturers protocol. Cells were used in experiments after two passages in the laboratory. Cells were grown in 24 well plates, each treatment in triplicates. Cells were plated 16 hours prior treatments started. Peptides were added to the media, and media was changed every day during 7 day experiment. CPP concentration was 10 μM. For cell counting, cells were trypsinized (0.25% Trypsin, 2 mM EDTA) in Ca, Mg free PBS. Cells were precipitated and resuspended in 100 μl of PBS, and 5 μl were removed for counting.

Dct/Trp2 promoter [2] = test: Transient CAT assay, Dct/Trp2 proximal promoter-CAT construct in WM 266-4; type: cell-based, human; details: CPP concentration 10 μM
Method: (§2) SOX10 and MITF interact with the proximal promoter of Dct/Trp2 gene and induces its activity (Ludwig A. et al., FEBS Lett. 556 (1-3):236-244 (2004)). Thus, a Dct/Trp2 proximal promoter reporter construct was used to analyze effect of mimicking peptides on promoter activity using transient CAT assay.
(§3) Methods. Human melanoma cell lines SK-MEL-28 and WM 266-4 were obtained from the American Tissue Culture Collection (ATCC) and were cultured according to recommendations of ATCC (DMEM, 10% FCS, penicillin+streptomycin). Dct/Trp2 proximal promoter-CAT construct (Ludwig et al., supra) was used in all experiments.
(§4) Cells were transfected by using FuGene reagent (Roche Molecular Biochemicals) according to manufacturer's instructions. Freeze-thaw lysates of cells collected 48 h after the transfection were assayed for CAT activity as described (Pothier, F. et al., DNA Cell Biol. 11(1):83-90 (1992)). At least two different DNA preparations were tested for each plasmid. To normalize the transfection efficiencies, cells were cotransfected with pON260 expressing β-galactosidase (Spaete, R. R. and Mocarski, E. S., J. Virol. 54(3):817-24 (1985); Spaete, R. R. and Mocarski, E. S., J. Virol. 56(1):13543 (1985)). All the CAT activities were normalized to total protein and β-galatosidase activity.
(§5) Following transfection, cells were grown in 6 well plates, each treatment in triplicates. Peptides were added to the media and media was changed every day during the 7 day experiment. CPP concentration was 10 μM.

WM 266-4 [3] = test: Apoptosis, Annexin V-Cy3 Apoptosis Kit; type: cell-based, human; details: conc 10 µM
Method: (§6) Methods. Human melanoma cell lines SK-MEL-28 and WM 2664 and mouse melanoma cell line B16 were obtained from the American Tissue Culture Collection (ATCC). Cells were cultured according to recommendations of ATCC (DMEM, 10% FCS, penicillin+streptomycin) and used in experiments after two passages in the laboratory. Cells were grown in 24 well plates, each treatment in triplicates. Cells were plated 16 hours prior treatments started. Peptides were added to the media, and media was changed every day during 7 day experiment. […] Methods. Human melanoma cell lines SK-MEL-28 and WM 266-4 were obtained from the American Tissue Culture Collection (ATCC) and were cultured according to recommendations of ATCC (DMEM, 10% FCS, penicillin+streptomycin). Human keratinocytes were obtained from Clonetics and cultured according to manufacturers protocol. Cells were used in experiments after two passages in the laboratory. Cells were grown in 24 well plates, each treatment in triplicates. Cells were plated 16 hours prior treatments started. Peptides were added to the media, and media was changed every day during 7 day experiment. […] Apoptosis was analyzed using Biovision Annexin V-Cy3 Apoptosis Kit according to manufacturers protocols.

Dct/Trp2 promoter [4] = test: Transient CAT assay, Dct/Trp2 proximal promoter-CAT construct in SK-MEL-28; type: cell-based, human; details: CPP concentration 10 μM
Method: as §2, §3, §4, §5

B16 [5] = test: Apoptosis, Annexin V-Cy3 Apoptosis Kit; type: cell-based, mouse; details: CPP mimicking peptides, conc 10 µM
Method: Methods. Human melanoma cell lines SK-MEL-28 and WM 2664 and mouse melanoma cell line B16 were obtained from the American Tissue Culture Collection (ATCC). Cells were cultured according to recommendations of ATCC (DMEM, 10% FCS, penicillin+streptomycin) and used in experiments after two passages in the laboratory. Cells were grown in 24 well plates, each treatment in triplicates. Cells were plated 16 hours prior treatments started. Peptides were added to the media, and media was changed every day during 7 day experiment. CPP concentration was 10 μM Apoptosis was analyzed using Biovision Annexin V-Cy3 Apoptosis Kit according to manufacturers protocols.

WM 266-4 [6] = test: Cell counting after 7 day peptide treatment; type: cell-based, human; details: conc 10 µM, start count 10
Method: as §1, with “CPP concentration was 10 μM For cell counting, cells were trypsinized (0.25% Trypsin, 2 mM EDTA) in Ca^+2, Mg^+2 free PBS.” left out, “CPP concentration was 10 μM.” left out

SK-MEL-28 [7] = test: WST-1 test (mitochondrial activity); type: cell-based, human; details: conc 10 µM, untreated = 1
B16 [8] = test: Cell counting after 7 day peptide treatment; type: cell-based, mouse; details: CPP mimicking peptides, conc 10 µM, start count 10
Method: The ability to block interaction of MITF, SOX10 and STAT3 with active transcriptional complex and inhibit proliferation and stimulate apoptosis of melanoma cells were tested on human melanoma cell lines SK-MEL-28 and WM 266-4, and mouse melanoma cell line B16. Methods. Human melanoma cell lines SK-MEL-28 and WM 2664 and mouse melanoma cell line B16 were obtained from the American Tissue Culture Collection (ATCC). Cells were cultured according to recommendations of ATCC (DMEM, 10% FCS, penicillin+streptomycin) and used in experiments after two passages in the laboratory. Cells were grown in 24 well plates, each treatment in triplicates. Cells were plated 16 hours prior treatments started. Peptides were added to the media, and media was changed every day during 7 day experiment. […] Cells were precipitated and resuspended in 100 μl of PBS, and 5 μl were removed for counting

Human keratinocytes [9] = test: Apoptosis, Annexin V-Cy3 Apoptosis Kit; type: cell-based; details: keratinocyte, modified peptides, conc 10 µM
B16 melanoma = test: Mouse tumor xenograft model, peptide membrane patch on skin melanoma; type: in vivo; details: patch immersed in 100 μM peptide solution, start = 100; for tumor size change (%) 1 d: B16 s.c. in C57BL/6 mice
Method: The effect of modified mimicking peptides was analyzed by inducing melanomas in mouse skin by grafting suspension of melanoma cells. […] Tumor diameter was measured 1, 2, 3, 5, 7 days after treatmet started.
Methods. Mouse melanoma cell line B16 was cultured as described above, and approximately 5×10^6 cells were injected subcutaneously into the left and right limbs of three C57BL/6JOIaHsd mice.
Administration. Cellulose membrane was immersed in a solution of peptides (100 μM). Size of tumor was measured 1, 2, 3, 5 and 7 days following patch treatment. At the same time new patch was applied. All experiments were done in triplicates (3 animals per group).

Human keratinocytes [10] = test: Cell counting after 7 day peptide treatment; type: cell-based; details: keratinocyte, modified peptides, conc 10 µM, start count 10
Method: Methods. Human melanoma cell lines SK-MEL-28 and WM 266-4 were obtained from the American Tissue Culture Collection (ATCC) and were cultured according to recommendations of ATCC (DMEM, 10% FCS, penicillin+streptomycin). Human keratinocytes were obtained from Clonetics and cultured according to manufacturers protocol. Cells were used in experiments after two passages in the laboratory. Cells were grown in 24 well plates, each treatment in triplicates. Cells were plated 16 hours prior treatments started. Peptides were added to the media, and media was changed every day during 7 day experiment. CPP concentration was 10 μM. For cell counting, cells were trypsinized (0.25% Trypsin, 2 mM EDTA) in Ca, Mg free PBS. Cells were precipitated and resuspended in 100 μl of PBS, and 5 μl were removed for counting.

WM 266-4 [11] = test: WST-1 test (mitochondrial activity); type: cell-based, human; details: modified peptides, conc 10 µM, untreated = 1
Method: as §6, with “WST-1 test” for “Apoptosis”, “performed” for “analyzed using Biovision Annexin V-Cy3 Apoptosis Kit according”, “measure mitochondrial activity, which can also be used as a measure of cell number.” for “manufacturers protocols.”

Human keratinocytes [12] = test: WST-1 test (mitochondrial activity); type: cell-based; details: keratinocyte; modified peptides; conc 10 µM; untreated = 1
Method: Methods. Human melanoma cell lines SK-MEL-28 and WM 266-4 were obtained from the American Tissue Culture Collection (ATCC) and were cultured according to recommendations of ATCC (DMEM, 10% FCS, penicillin+streptomycin). Human keratinocytes were obtained from Clonetics and cultured according to manufacturers protocol. Cells were used in experiments after two passages in the laboratory. Cells were grown in 24 well plates, each treatment in triplicates. Cells were plated 16 hours prior treatments started. Peptides were added to the media, and media was changed every day during 7 day experiment. […] WST-1 test was performed to measure mitochondrial activity, which can also be used as a measure of cell number.

[13] = modified (inhibitor/MMP2, MMP9 site) peptides

## RPKKRKVRRRKMQQLEQMLTALDQMRRSIVSELAGLLS [STAT3-int1]
SK-MEL-28 [1]; CPP mimicking peptides
  Cell Count 7 d: 40
Dct/Trp2 promoter [2]
  Dct/Trp2 promoter activity (CAT assay): do not have significant effect
WM 266-4 [3]; CPP mimicking peptides
  Apoptosis 7 d/%: 10%
Dct/Trp2 promoter [4]
  Dct/Trp2 promoter activity (CAT assay): do not have significant effect
B16 [5]
  Apoptosis 7 d/%: 28%
WM 266-4 [6]; CPP mimicking peptides
  Cell Count 7 d: 34
SK-MEL-28 [7]; CPP mimicking peptides
  WST-1 7 d: 0.79
B16 [8]
  Cell Count 7 d: 59

## TTGGSSPQGLEAKRPKKRKVRRRKMQQLEQMLTALDQMRRSIVSELAGLLS [STAT3-int1M]
Human keratinocytes [9]
  Apoptosis 7 d/%: 2%
SK-MEL-28 [1]; [13]
  Cell Count 7 d: 42
B16 melanoma
  tumor size change (%) 1 d: 109%
  tumor size change (%) 2 d: 124%
  tumor size change (%) 3 d: 154%
  tumor size change (%) 5 d: 181%
  tumor size change (%) 7 d: 217%
WM 266-4 [3]; modified peptides
  Apoptosis 7 d/%: 13%
Human keratinocytes [10]
  Cell Count 7 d: 41
WM 266-4 [11]
  WST-1 7 d: 0.91
SK-MEL-28 [7]; modified peptides
  WST-1 7 d: 0.84
Human keratinocytes [12]
  WST-1 7 d: 1

## TTGGSSPQGLEAKRPKKRKVRRRQLMLEPYALDMSRIRVLSESLGLATQSG [Scr-int1M, reference compound]
SK-MEL-28 [1]; [13]
  Cell Count 7 d: 48
B16 melanoma
  tumor size change (%) 1 d: 109%
  tumor size change (%) 2 d: 147%
  tumor size change (%) 3 d: 175%
  tumor size change (%) 5 d: 211%
  tumor size change (%) 7 d: 272%
Human keratinocytes [10]
  Cell Count 7 d: 40
WM 266-4 [11]
  WST-1 7 d: 1
WM 266-4 [6]; modified peptides
  Cell Count 7 d: 30
SK-MEL-28 [7]; modified peptides
  WST-1 7 d: 1
Human keratinocytes [12]
  WST-1 7 d: 1

## TTGGSSPQGLEAKRPKKRKVRRRVKRPMNAFMVWAQAARRKLADQY [SOX10-int1M]
Human keratinocytes [9]
  Apoptosis 7 d/%: 6%
SK-MEL-28 [1]; [13]
  Cell Count 7 d: 35
B16 melanoma
  tumor size change (%) 1 d: 111%
  tumor size change (%) 2 d: 127%
  tumor size change (%) 3 d: 146%
  tumor size change (%) 5 d: 171%
  tumor size change (%) 7 d: 224%
Human keratinocytes [10]
  Cell Count 7 d: 37
WM 266-4 [11]
  WST-1 7 d: 0.7
WM 266-4 [6]; modified peptides
  Cell Count 7 d: 22
SK-MEL-28 [7]; modified peptides
  WST-1 7 d: 0.72
Human keratinocytes [12]
  WST-1 7 d: 0.93
